Measured values from ChEMBL document CHEMBL1773003.
Calls of active or inactive are those of the source. No cut-off for these calls is given here.

Legend:
[1] = molecular target: Matrix protein 2 (Influenza A virus) (UniProt P06821); type: cell-based; conditions: Influenza A virus (A/udorn/1972(H3N2)); Oocyte; 100 uM
MDCK = experiment: Cytotoxicity against MDCK cells after 72 hrs by MTS assay; type: cell-based, Canis lupus familiaris; conditions: dog
[2] = Binding affinity to Influenza A virus (A/Udorn/72) transmembrane domain of matrix protein 2 (22 to 46) at pH 7.4 by circular dichroism analysis; set-up: species or system Influenza A virus (A/udorn/1972(H3N2))
Influenza A virus [3] = experiment: Antiviral activity against Influenza A virus (A/Udorn/72) expressing wild-type matrix protein 2 infected in MDCK cells assessed as inhibition of plaque formation at 5 uM measured after 2 days; type: functional, organism-based; conditions: Influenza A virus (A/udorn/1972(H3N2))
Matrix protein 2 = Matrix protein 2 (Influenza A virus, UniProt P06821); type: cell-based, Influenza A virus (A/udorn/1972(H3N2)), Oocyte
Influenza A virus [4] = experiment: Inhibition of Influenza A virus matrix protein 2; conditions: concentration not given here

Sequence of Matrix protein 2 (P06821 whole entry): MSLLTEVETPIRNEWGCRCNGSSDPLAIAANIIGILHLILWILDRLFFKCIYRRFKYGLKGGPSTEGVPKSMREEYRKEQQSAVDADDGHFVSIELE
Sequence of Matrix protein 2 (Influenza A virus) (P06821 whole entry): as above

SMILES	inhibition [1]	CC50 (MDCK)	Kd [2]	Activity (Influenza A virus [3])	IC50 (Matrix protein 2)	inhibition (Influenza A virus [4])
CC(=N)NC12C3CCC4C3C3C(CCC31)C42	9.3%	> 500 µM				
C1C2C1C1C3C4C5C6CC6C4C14CNCC54C23 (stereo unspecified)	86.5%	61 µM	232 µM	Active		
CC12CC3CC1(C)CC3(CN)C2	97.3%	79 µM		Active	7.2 µM	
C1=CC2C3C4C5C=CC4C24CNCC54C13		> 500 µM	74.9 µM		33.5 µM	
CNC12CC3CC(CC(C3)O1)C2	91.7%	> 500 µM			22.9 µM	
CC(N)C12CC3CC(CC1C3)C2 (racemic)	93.2%	256 µM		Active	12.7 µM	
NC12CC3CC(CC(C3)O1)C2	88.2%	> 500 µM	91.6 µM		29.2 µM	
N=C(N)NCC12CC3CC(CC1C3)C2	97.2%			Active		
CNCC12CC3CC(CC1C3)C2	92.2%	< 19.4 µM		Active	17.1 µM	
CCN(CC)C12C3CCC4C3C3C(CCC31)C42	0%	119 µM				
NC12C3CCC4C3C3C(CCC31)C42	4.8%	> 500 µM				
CNCC12C3CCC4C3C3C(CCC31)C42	14.7%	224 µM				
CC12CC3CC1(C)CC3(N)C2	93.6%	> 500 µM		Active		
C1CC2C3C4C5CCC4C24CNCC54C13	39.7%					
NCC12CC3CC(CC1C3)C2	97.1%	357 µM		Active	7.1 µM	
NC12CC3CC(CC(C3)C1)C2 [AMANTADINE]	91%			Active		85%
NCC12C3CCC4C3C3C(CCC31)C42	12.8%	12 µM				
NC(N)=NCC12CC3CC(CC1C3)C2		10.5 µM			2.4 µM	
